Values of other authors, collected in publication PMC11839696 (European Journal of Nuclear Medicine and Molecular Imaging, 2024).

System: prostate cancer tissue
Parameters: AUC of the ROC analysis: unit not given beside the values

## O=C(O)CC[C@H](NC(=O)N[C@@H](CCCCNC(=O)[C@H](Cc1ccc2ccccc2c1)NC(=O)c1ccc(CNC(=O)[C@H](CCC(=O)O)NC(=O)[C@H](CCC(=O)O)NC(=O)c2ccc([18F])nc2)cc1)C(=O)O)C(=O)O [[^18F]-PSMA-1007]
At 75 CPM
  sensitivity: 65.1%
  specificity: 87%
Five patients, 113 cores
  optimal threshold for determining PCa: 75 CPM
Five patients, 113 cores, within 3 h after injection
  AUC of the ROC analysis: 0.81
